Entries after “also recorded” stand apart in the source; their conditions may differ. Where two headings read alike, the source gives them in different places.
What was measured:
[1] = test system: β-amyloid protein (Aβ) secreted by E35 cells (H4 cells with APP751 gene); assay: Screening system using E35 cells for inhibition of production/secretion of β-amyloid protein (sandwich ELISA of Aβ in culture medium); format: cell-based, human; details: 24 hours with compound, Aβ in culture supernatant by ELISA, read-out: Inhibitory Activity for Production of A(EC50)
Procedure: The activity of the compound inhibiting β-amyloid protein production was measured on E35 cells prepared by introducing APP751 gene, a gene of a human wild type β-amyloid protein precursor protein, to human glioma cells (H4 cells), by quantifying the amount of β-amyloid protein (Aβ) secreted to the culture medium by means of a sandwich type Enzyme-Linked Immunosorbent Assay (ELISA) method.
That is, E35 cells inoculated on a 96-well plate were cultured in an incubator at 37° C. which was maintained at equilibrium with 5% carbon dioxide, using Dulbecco's Modified Eagle's Medium containing inactivated 10% fetal bovine serum as the culture medium. After 24 hours from the inoculation, a test compound dissolved in a DMSO solution was added. The DMSO solution of the test compound was prepared at a concentration of 2000 times of the final concentration, such that the DMSO concentration in the culture medium would be 0.05%. After culturing for another 24 hours, the culture supernatant was recovered, and this was added to a 96-well plate for ELISA onto which a monoclonal antibody against Aβ, 25-1, was solid-phased. The plate was incubated at 4° C. for 16 to 20 hours. The plate was washed with phosphate buffer solution (pH 7.4), and then a biotinylated monoclonal antibody against Aβ, MA32-40, was added thereto. The plate was left to stand at 4° C. for 2 hours. The plate was washed again with phosphate buffer solution, and then alkaline phosphatase-conjugated streptavidin was added to conjugate streptavidin to biotin. Subsequently, the plate was washed with phosphate buffer solution. To this, Blue Phos (Kirkegaard & Perry Laboratories, Inc.) was added. After incubating the plate for an appropriate time, the reaction was terminated with an acid, and the absorbance for each well was measured. The amount of Aβ contained in the culture supernatant was determined from a calibration curve which was produced separately, and the amount was compared with that of control cells to which the compound was not added. Thus, the concentration at which 50% of the Aβ production is inhibited (EC50 value) was calculated. In addition, the 25-1 antibody and MA32-40 antibody used in ELISA were mouse monoclonal antibodies derived from the hybridoma cell clone lines, which were each produced and selected according to a standard method using Aβ25-35 and Aβ1-8 as antigens, respectively, and which specifically recognize their respective antigens. […]
The scores indicate ++++ for the case where EC50 was 5 nM or less; +++ for the case where EC50 was 5 to 50 nM; ++ for the case where EC50 was 50 to 500 nM; and + for the case where EC50 was 500 nM to 5 μM.

[2] = test system: intracerebral amount of Aβ; assay: Assessment of β-amyloid protein production inhibitory action and immunosuppressing action in vivo; details: male SD rats, oral, single dose, cerebrum Aβ after 3 hours, repeated administration for 7 days for immunosuppression
From the text: As an example of the compound (1), the compounds described in Example 22, Example 85, Example 101, Example 106 or Example 118 (respectively, compound represented by the above formula (1-1), (1-2), (1-3), (1-4) or (1-5), which will be hereinafter referred respectively to compound (1-1), (1-2), (1-3), (1-4) or (1-5)), or the control compound LY, was suspended in a 0.5% aqueous solution of methylcellulose, and the suspension was orally administered in a single dose to male SD rats (about 5 weeks old). For the solvent control group, a 0.5% aqueous solution of methylcellulose was administered alone. After 3 hours of administration, the brain was excised, and the cerebrum was collected. The cerebrum was homogenized with a 42% aqueous solution of formic acid, and was centrifuged at 100,000×g for 60 minutes. The resulting supernatant was neutralized with 1 M Tris, and the Aβ concentration in these samples were measured using the sandwich type ELISA method as described in Test Example 1. Furthermore, the compound (1-1) to (1-5) or control compound LY was orally administered to male SD rats repeatedly for 7 days, and the rats were subjected to histopathological and serological examinations, so as to assess the immunosuppressing effect of the compound.

EC50 ([1]; Homo sapiens) [nM] | melting point [°C] | SMILES | also measured
500 to 5000 |  | Cc1cc(C(=O)N(C)C)ncc1C(c1cc(F)ccc1F)[S+]([O-])c1ccc(F)cc1 (centres unmarked) [Example 22, 5-[(2,5-Difluorophenyl)[(4-fluorophenyl)sulfinyl]methyl]-N,N,4-trimethylpyridine-2-carboxamide] | difference between the dose exhibiting a statistically significant decrease in the intracerebral amount of Aβ and the dose exhibiting an immunosuppressing effect ([2]; listed as (1-1)): sufficient differences were recognized; also recorded: sufficient difference
≤ 5 | 182 to 185 | Cc1cc(C(=O)NCCCS(C)(=O)=O)ncc1C(c1cc(F)ccc1F)S(=O)(=O)c1ccc(F)cc1 (centres unmarked) [Example 74, 5-[(2,5-Difluorophenyl)[(4-fluorophenyl)sulfonyl]methyl]-4-methyl-N-[3-(methylsulfonyl)propyl]pyridine-2-carboxamide] | 
≤ 5 | 150 to 152 | Cc1cc(C(=O)NC(CO)CO)ncc1C(c1cc(F)ccc1F)S(=O)(=O)c1ccc(F)cc1 (centres unmarked) [Example 75, 5-[(2,5-Difluorophenyl)[(4-fluorophenyl)sulfonyl]methyl]-N-[2-hydroxy-1-(hydroxymethyl)ethyl]-4-methylpyridine-2-carboxamide] | 
500 to 5000 | 171 to 173 | Cc1cc(C(=O)N2CCC(O)CC2)ncc1C(c1cc(F)ccc1F)S(=O)(=O)c1ccc(F)cc1 (centres unmarked) [Example 76, 1-[[5-[(2,5-Difluorophenyl)[(4-fluorophenyl)sulfonyl]methyl]-4-methylpyridin-2-yl]carbonyl]piperidin-4-ol] | 
500 to 5000 | 165 to 167 | Cc1cc(C(=O)N2CCOCC2)ncc1C(c1cc(F)ccc1F)S(=O)(=O)c1ccc(F)cc1 (centres unmarked) [Example 77, 4-[[5-[(2,5-Difluorophenyl)[(4-fluorophenyl)sulfonyl]methyl]-4-methylpyridin-2-yl]carbonyl]morpholine] | 
5 to 50 | 231 to 234 | CONC(=O)c1cc(C)c(C(c2cc(F)ccc2F)S(=O)(=O)c2ccc(F)cc2)cn1 (centres unmarked) [Example 78, 5-[(2,5-Difluorophenyl)[(4-fluorophenyl)sulfonyl]methyl]-N-methoxy-4-methylpyridine-2-carboxamide] | 
50 to 500 | 156 to 158 | CON(C)C(=O)c1cc(C)c(C(c2cc(F)ccc2F)S(=O)(=O)c2ccc(F)cc2)cn1 (centres unmarked) [Example 79, 5-[(2,5-Difluorophenyl) [(4-fluorophenyl)sulfonyl]methyl]-N-methoxy-N,4-dimethylpyridine-2-carboxamide] | 
≤ 5 | 167 to 169 | COC(=O)NCCNC(=O)c1cc(C)c(C(c2cc(F)ccc2F)S(=O)(=O)c2ccc(F)cc2)cn1 (centres unmarked) [Example 84, Methyl[2-[[[5-[(2,5-difluorophenyl)[(4-fluorophenyl)sulfonyl]methyl]-4-methylpyridin-2-yl]carbonyl]amino]ethyl]carbamate] | 
≤ 5 | 164 to 166 | Cc1cc(C(=O)NCO)ncc1C(c1cc(F)ccc1F)S(=O)(=O)c1ccc(F)cc1 (centres unmarked) [Example 85, 5-[(2,5-difluorophenyl)[(4-fluorophenyl)sulfonyl]methyl]-N-(1-hydroxymethyl)-4-methylpyridine-2-carboxamide] | difference between the dose exhibiting a statistically significant decrease in the intracerebral amount of Aβ and the dose exhibiting an immunosuppressing effect ([2]; listed as (1-2)): sufficient differences were recognized
≤ 5 | 164 to 165 | Cc1cc(C(=O)NCCO)ncc1C(c1c(F)ccc(F)c1F)S(=O)(=O)c1ccc(F)cc1 (centres unmarked) [Example 94, 5-[[(4-Fluorophenyl)sulfonyl](2,3,6-trifluorophenyl)methyl]-N-(2-hydroxyethyl)-4-methylpyridine-2-carboxamide] | 
≤ 5 |  | Cc1cc(C(=O)NCO)ncc1C(c1c(F)ccc(F)c1F)S(=O)(=O)c1ccc(F)cc1 (centres unmarked) [Example 101, 5-[[(4-Fluorophenyl)sulfonyl](2,3,6-trifluorophenyl)methyl]-N-(1-hydroxymethyl)-4-methylpyridine-2-carboxamide] | difference between the dose exhibiting a statistically significant decrease in the intracerebral amount of Aβ and the dose exhibiting an immunosuppressing effect ([2]; listed as (1-3)): sufficient differences were recognized
≤ 5 |  | Cc1cc(C(=O)NCO)ncc1C(c1c(F)ccc(F)c1F)S(=O)(=O)c1ccccc1 (centres unmarked) [Example 106, N-(1-hydroxymethyl)-4-methyl-5-[(phenylsulfonyl)(2,3,6-trifluorophenyl)methyl]pyridine-2-carboxamide] | difference between the dose exhibiting a statistically significant decrease in the intracerebral amount of Aβ and the dose exhibiting an immunosuppressing effect ([2]; listed as (1-4)): sufficient differences were recognized
≤ 5 | 237 to 238 | Cc1cc(C(N)=O)ncc1C(c1c(F)ccc(F)c1F)S(=O)(=O)c1ccc(C(F)(F)F)nc1 (centres unmarked) [Example 117, 4-Methyl-5-[[[6-(trifluoromethyl)pyridin-3-yl]sulfonyl](2,3,6-trifluorophenyl)methyl]pyridine-2-carboxamide] | 
≤ 5 | 181 to 182 | Cc1cc(C(=O)NCO)ncc1C(c1c(F)ccc(F)c1F)S(=O)(=O)c1ccc(C(F)(F)F)nc1 (centres unmarked) [Example 118, N-(1-hydroxymethyl)-4-methyl-5-[[[6-(trifluoromethyl)pyridin-3-yl]sulfonyl](2,3,6-trifluorophenyl)methyl]pyridine-2-carboxamide] | difference between the dose exhibiting a statistically significant decrease in the intracerebral amount of Aβ and the dose exhibiting an immunosuppressing effect ([2]; listed as (1-5)): sufficient differences were recognized
≤ 5 | 177 to 178 | Cc1cc(C(=O)NCO)ncc1C(c1c(F)ccc(F)c1F)S(=O)(=O)c1ccc(Cl)cc1 (centres unmarked) [Example 120, 5-[[(4-Chlorophenyl)sulfonyl](2,3,6-trifluorophenyl)methyl]-N-(hydroxymethyl)-4-methylpyridine-2-carboxamide] | 
≤ 5 | 219 to 220 | Cc1cc(C(N)=O)ncc1C(c1c(F)ccc(F)c1F)S(=O)(=O)c1ccc(OC(F)(F)F)cc1 (centres unmarked) [Example 123, 4-Methyl-5-[[[4-(trifluoromethoxy)phenyl]sulfonyl](2,3,6-trifluorophenyl)methyl]pyridine-2-carboxamide] | 
5 to 50 | 140 to 141 | Cc1cc(C(=O)NCO)ncc1C(c1c(F)ccc(F)c1F)S(=O)(=O)c1ccc(OC(F)(F)F)cc1 (centres unmarked) [Example 124, N-(hydroxymethyl)-4-methyl-5-[[[4-(trifluoromethoxy)phenyl]sulfonyl](2,3,6-trifluorophenyl)methyl]pyridine-2-carboxamide] | 
 |  | CC(C)[C@H](O)C(=O)N[C@@H](C)C(=O)N[C@@H]1C(=O)N(C)CCc2ccccc21 [LY, (N)—((S)-2-hydroxy-3-methyl-butyryl)-1-(L-alaninyl)-(S)-1-amino-3-methyl-4,5,6,7-tetrahydro-2H-3-benzoazepin-2-one, reference compound] | EC50 [1]: 5 to 50 nM; difference between the dose exhibiting a statistically significant decrease in the intracerebral amount of Aβ and the dose exhibiting an immunosuppressing effect [2]: no sufficient difference was recognized

Source: patent US8114886B2, “Pyridylmethylsulfone derivative” (Daiichi Sankyo Company, Limited, priority 2005, dated 2012)
